Where two headings read alike, the source gives them in different places.
Tests used:
[1] = target: recombinant Dictyostelium miozin (Dictyostelium) (Dictyostelium discoideum, UniProt P08799); test: actomyosin steady state ATPase measurement, Dictyostelium myosin; type: biochemical
Excerpt: (§1) […]; (ii) the concentration required for semi-maximal inhibition.

[2] = target: recombinant human non-muscle myosin 2 NM2A (Homo sapiens, UniProt P35579); test: actomyosin steady state ATPase measurement, NM2A; type: biochemical
Excerpt: as §1

[3] = target: recombinant human non-muscle myosin 2 NM2B (Homo sapiens, UniProt P35580); test: actomyosin steady state ATPase measurement, NM2B; type: biochemical
Excerpt: as §1

[4] = target: recombinant human non-muscle myosin 2 NM2C (Homo sapiens, UniProt Q7Z406); test: actomyosin steady state ATPase measurement, NM2C; type: biochemical
Excerpt: as §1

[5] = target: T1, isolated porcine cardiac ventricular myocardium (cardiac) (Sus scrofa, UniProt P79293); test: actomyosin steady state ATPase measurement, cardiac myosin; type: biochemical
T1 construct: isolated porcine cardiac ventricular myocardium (cardiac); from tissue; host or cells: porcine cardiac ventricle
Excerpt: as §1

[6] = test system: isolated rabbit skeletal muscle myosin (skeletal); test: actomyosin steady state ATPase measurement, skeletal muscle myosin; type: biochemical
Excerpt: as §1

[7] = target: isolated smooth muscle myosin (UniProt P10587); type: biochemical, chamois; settings: concentration required for semi-maximal inhibition of ATPase
Excerpt: (ii) the concentration required for semi-maximal inhibition.

[8] = vital parameters of live anesthetized rats monitored during isometric force measurement; type: in vivo; settings: anesthetized rat; for Maximum change of vital parameters (%) blood flow: neck arteries
Method: The maximum isometric force induced by the stimulation was determined after intraperitoneal injection of some of the compounds of the invention. During the measurement, the following parameters of live anesthetized rats were continuously monitored: • a) heart rate • b) blood flow in the neck arteries • c) respiratory frequency • d) blood oxygen saturation ratio

[9] = tissue concentrations after intraperitoneal injection into a live rat; type: in vivo; settings: ip, 6 mg i.p.
[10] = solubility in PBS in the presence of 1% DMSO; type: physicochemical; settings: phosphate buffered saline with 1% DMSO, aqueous buffer, kinetic from dmso stock, PBS w/o Mg, Ca
[11] = test system: S. typhimurium TA98; test: Ames Reverse Mutagenicity Assay (Ames MPF Test), TA98; type: cell-based
Method: (§2) Mutagenicity of the compounds was determined in the Ames Reverse Mutagenicity Assay (Ames MPF Test, Xenometrix Inc.) approved by the OECD, EMA and FDA on S. typhimurium TA98 and TA100 strains without or in the presence of S9 rat liver fraction. Relative mutagenicity values were prepared using a table provided by the manufacturer. Relative mutagenicity values according to OECD, EMA, and FDA standards may not exceed 2 at any concentration because in such a case they are potentially mutagenic.

[12] = test system: S. typhimurium TA100; test: Ames Reverse Mutagenicity Assay (Ames MPF Test), TA100; type: cell-based
Method: as §2

[13] = target: isolated smooth muscle myosin (UniProt P10587); type: biochemical, chamois
[14] = maximum value of inhibition of ATPase activity
[15] = concentration required for semi-maximal inhibition of ATPase
[16] = 5 μM (10 μM if racemate), ATPase activity
[17] = 50 μM (100 μM if racemate), ATPase activity
[18] = blood, read-out: Concentration of compound 188 in tissue samples (μM) blood
[19] = brain, read-out: Concentration of compound 188 in tissue samples (μM) brain
[20] = skeletal muscle, read-out: Concentration of compound 188 in tissue samples (μM) muscle
[21] = kidney, read-out: Concentration of compound 188 in tissue samples (μM) kidney
[22] = liver, read-out: Concentration of compound 188 in tissue samples (μM) liver
[23] = lung, read-out: Concentration of compound 188 in tissue samples (μM) lung
[24] = myocardium, read-out: Concentration of compound 188 in tissue samples (μM) myocardium
[25] = spleen, read-out: Concentration of compound 188 in tissue samples (μM) spleen
[26] = urine, read-out: Concentration of compound 188 in tissue samples (μM) urine

Chain of recombinant human non-muscle myosin 2 NM2B (P35580 whole entry): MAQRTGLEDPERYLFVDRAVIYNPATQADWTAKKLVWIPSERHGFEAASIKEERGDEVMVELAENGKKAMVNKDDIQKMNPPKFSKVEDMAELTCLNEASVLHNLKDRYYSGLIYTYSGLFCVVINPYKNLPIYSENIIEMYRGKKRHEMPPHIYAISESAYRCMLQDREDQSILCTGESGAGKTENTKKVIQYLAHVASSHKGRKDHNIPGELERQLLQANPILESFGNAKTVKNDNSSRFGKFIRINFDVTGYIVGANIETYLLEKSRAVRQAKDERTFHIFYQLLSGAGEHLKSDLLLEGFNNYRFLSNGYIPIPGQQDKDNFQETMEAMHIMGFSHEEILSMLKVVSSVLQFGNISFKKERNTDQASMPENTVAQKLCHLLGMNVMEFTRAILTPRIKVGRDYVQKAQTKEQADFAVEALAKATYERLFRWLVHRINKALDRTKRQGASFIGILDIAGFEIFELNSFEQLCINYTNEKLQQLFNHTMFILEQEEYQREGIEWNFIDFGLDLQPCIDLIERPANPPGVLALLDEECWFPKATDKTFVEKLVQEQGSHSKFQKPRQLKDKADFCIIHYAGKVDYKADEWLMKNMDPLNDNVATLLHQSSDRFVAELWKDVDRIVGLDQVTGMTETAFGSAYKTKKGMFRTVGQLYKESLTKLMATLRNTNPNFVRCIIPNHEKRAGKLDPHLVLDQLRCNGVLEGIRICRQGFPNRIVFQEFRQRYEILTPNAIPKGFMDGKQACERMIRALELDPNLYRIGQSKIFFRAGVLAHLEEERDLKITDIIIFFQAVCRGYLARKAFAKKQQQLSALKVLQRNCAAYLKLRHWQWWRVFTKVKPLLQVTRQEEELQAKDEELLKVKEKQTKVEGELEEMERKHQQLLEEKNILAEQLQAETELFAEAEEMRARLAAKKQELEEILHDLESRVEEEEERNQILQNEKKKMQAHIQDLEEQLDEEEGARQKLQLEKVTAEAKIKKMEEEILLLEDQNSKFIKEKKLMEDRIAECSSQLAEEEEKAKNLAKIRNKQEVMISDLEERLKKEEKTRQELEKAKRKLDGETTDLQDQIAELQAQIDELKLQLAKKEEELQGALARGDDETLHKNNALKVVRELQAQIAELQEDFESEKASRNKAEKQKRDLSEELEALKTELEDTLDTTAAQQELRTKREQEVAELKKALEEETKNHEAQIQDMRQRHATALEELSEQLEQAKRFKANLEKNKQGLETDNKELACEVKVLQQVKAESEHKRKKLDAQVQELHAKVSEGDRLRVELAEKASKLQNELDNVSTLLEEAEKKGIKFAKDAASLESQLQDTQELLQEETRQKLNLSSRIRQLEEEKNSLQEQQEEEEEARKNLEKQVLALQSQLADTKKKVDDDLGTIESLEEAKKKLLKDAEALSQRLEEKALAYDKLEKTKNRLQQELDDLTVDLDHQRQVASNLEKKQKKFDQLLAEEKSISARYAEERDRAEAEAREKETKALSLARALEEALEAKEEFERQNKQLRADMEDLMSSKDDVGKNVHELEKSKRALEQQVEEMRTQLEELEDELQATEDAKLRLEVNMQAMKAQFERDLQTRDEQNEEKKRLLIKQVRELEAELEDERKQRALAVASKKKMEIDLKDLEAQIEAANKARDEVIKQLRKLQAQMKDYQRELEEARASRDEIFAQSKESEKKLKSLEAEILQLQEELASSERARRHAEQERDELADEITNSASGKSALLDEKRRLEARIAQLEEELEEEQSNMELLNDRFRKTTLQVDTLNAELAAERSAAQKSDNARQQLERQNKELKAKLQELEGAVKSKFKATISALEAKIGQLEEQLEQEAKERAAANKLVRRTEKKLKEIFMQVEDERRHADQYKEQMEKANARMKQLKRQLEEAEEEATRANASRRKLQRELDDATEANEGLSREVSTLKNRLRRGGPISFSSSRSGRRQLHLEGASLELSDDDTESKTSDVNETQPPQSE
Chain of recombinant human non-muscle myosin 2 NM2A (P35579 whole entry): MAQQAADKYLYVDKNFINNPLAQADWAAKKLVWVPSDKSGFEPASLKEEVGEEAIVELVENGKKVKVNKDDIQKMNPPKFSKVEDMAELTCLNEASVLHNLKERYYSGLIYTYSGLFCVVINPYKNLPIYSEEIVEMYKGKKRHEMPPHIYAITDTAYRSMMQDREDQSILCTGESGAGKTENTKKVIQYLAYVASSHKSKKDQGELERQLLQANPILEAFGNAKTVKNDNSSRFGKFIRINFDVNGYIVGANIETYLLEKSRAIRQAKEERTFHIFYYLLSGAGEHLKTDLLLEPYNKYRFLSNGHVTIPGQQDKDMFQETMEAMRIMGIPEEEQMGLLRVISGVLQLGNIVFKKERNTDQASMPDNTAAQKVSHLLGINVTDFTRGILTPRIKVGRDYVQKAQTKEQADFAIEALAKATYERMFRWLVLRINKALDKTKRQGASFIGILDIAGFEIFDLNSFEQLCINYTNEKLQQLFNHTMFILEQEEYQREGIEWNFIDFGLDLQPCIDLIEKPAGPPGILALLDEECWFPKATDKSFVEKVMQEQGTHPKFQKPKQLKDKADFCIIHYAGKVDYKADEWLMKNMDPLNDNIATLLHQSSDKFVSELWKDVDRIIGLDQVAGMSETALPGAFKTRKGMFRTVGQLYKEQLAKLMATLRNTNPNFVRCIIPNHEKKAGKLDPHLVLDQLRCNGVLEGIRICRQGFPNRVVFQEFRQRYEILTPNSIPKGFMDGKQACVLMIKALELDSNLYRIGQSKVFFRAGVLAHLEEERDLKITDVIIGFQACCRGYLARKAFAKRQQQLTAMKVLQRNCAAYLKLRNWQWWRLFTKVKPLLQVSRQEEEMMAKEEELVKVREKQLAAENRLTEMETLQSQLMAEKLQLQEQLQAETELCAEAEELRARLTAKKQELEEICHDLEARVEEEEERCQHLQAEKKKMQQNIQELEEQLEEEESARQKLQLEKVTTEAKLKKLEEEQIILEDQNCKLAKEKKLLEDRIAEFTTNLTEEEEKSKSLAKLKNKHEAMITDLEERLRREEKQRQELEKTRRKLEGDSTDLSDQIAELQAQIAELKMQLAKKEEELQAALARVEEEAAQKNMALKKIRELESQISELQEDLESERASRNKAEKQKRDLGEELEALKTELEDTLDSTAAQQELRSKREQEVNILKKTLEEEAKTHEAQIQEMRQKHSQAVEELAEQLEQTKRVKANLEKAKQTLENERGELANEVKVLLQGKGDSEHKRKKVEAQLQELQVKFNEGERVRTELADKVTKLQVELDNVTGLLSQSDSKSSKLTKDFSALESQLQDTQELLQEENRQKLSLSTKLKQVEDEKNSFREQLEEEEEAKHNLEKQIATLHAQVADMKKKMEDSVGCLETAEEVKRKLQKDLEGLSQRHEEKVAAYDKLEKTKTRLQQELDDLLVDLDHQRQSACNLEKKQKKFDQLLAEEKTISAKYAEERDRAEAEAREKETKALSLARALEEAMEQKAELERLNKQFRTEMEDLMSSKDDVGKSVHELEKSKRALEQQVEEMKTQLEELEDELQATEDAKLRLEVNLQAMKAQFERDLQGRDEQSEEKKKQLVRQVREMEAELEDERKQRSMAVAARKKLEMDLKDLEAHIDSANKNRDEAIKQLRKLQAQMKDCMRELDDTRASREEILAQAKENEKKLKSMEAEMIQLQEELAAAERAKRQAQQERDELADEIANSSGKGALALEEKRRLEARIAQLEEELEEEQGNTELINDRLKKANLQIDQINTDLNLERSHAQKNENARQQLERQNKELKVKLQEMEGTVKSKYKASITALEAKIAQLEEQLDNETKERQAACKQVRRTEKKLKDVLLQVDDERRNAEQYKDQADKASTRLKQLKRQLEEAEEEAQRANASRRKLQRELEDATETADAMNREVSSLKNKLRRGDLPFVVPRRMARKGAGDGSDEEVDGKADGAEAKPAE

## O=C1c2ccsc2N=C2N(c3ccc(N4CCOCC4)cc3)CCC12O (stereo not shown) [Compound 188, 9-Hydroxy-12-[4-(morpholin-4-yl)phenyl]-4-thia-2,12-diazatricyclo[7.3.0.0^3,7]dodeca-1,3(7),5-trien-8-one]
[1]; concentration required for semi-maximal inhibition of ATPase, read-out: IC50 (μM) Dicty
  IC50: 13 µM
[1]; [14]
  % inhibition. complete Dicty: 19%
[1]; read-out: % inhibition at 5 μM (or 10 μM if racemate) Dicty
  inhibition at 5 µM: 5%
[1]; read-out: % inhibition at 50 μM (or 100 μM if racemate) Dicty
  inhibition at 50 µM: 15%
[2]; [15]
  IC50: 82 µM
[2]; [14]
  % inhibition. complete NM2A: 31%
[2]; read-out: % inhibition at 5 μM (or 10 μM if racemate) NM2A, 5 μM (10 μM if racemate), ATPase activity
  inhibition at 5 µM: 0%
[2]; read-out: % inhibition at 50 μM (or 100 μM if racemate) NM2A, 50 μM (100 μM if racemate), ATPase activity
  inhibition at 50 µM: 9%
[3]; [15]
  IC50: 5 µM
[3]; [14]
  % inhibition. complete NM2B: 19%
[3]; read-out: % inhibition at 5 μM (or 10 μM if racemate) NM2B, 5 μM (10 μM if racemate), ATPase activity
  inhibition at 5 µM: 8%
[3]; read-out: % inhibition at 50 μM (or 100 μM if racemate) NM2B, 50 μM (100 μM if racemate), ATPase activity
  inhibition at 50 µM: 18%
[4]; [15]
  IC50: 4 µM
[4]; maximum inhibition, compounds in IC50 range 1-5 μM
  Inhibition (%) NM2C: 15%
[4]; [14]
  % inhibition. complete NM2C: 15%
[4]; read-out: % inhibition at 5 μM (or 10 μM if racemate) NM2C, 5 μM (10 μM if racemate), ATPase activity
  inhibition at 5 µM: 8%
[4]; read-out: % inhibition at 50 μM (or 100 μM if racemate) NM2C, 50 μM (100 μM if racemate), ATPase activity
  inhibition at 50 µM: 14%
[5]; [15]
  IC50: > 100 µM
[5]; [14]
  % inhibition. complete cardiac: 32%
[5]; read-out: % inhibition at 5 μM (or 10 μM if racemate) cardiac, 5 μM (10 μM if racemate), ATPase activity
  inhibition at 5 µM: 0%
[5]; read-out: % inhibition at 50 μM (or 100 μM if racemate) cardiac, 50 μM (100 μM if racemate), ATPase activity
  inhibition at 50 µM: 8%
[6]; [16]
  % inhibition at 5 μM (or 10 μM if racemate) Skeletal: 50%
[6]; [17]
  % inhibition at 50 μM (or 100 μM if racemate) Skeletal: 95%
[6]; [15]
  IC50: 5 µM
[6]; [14]
  % inhibition. complete Skeletal: 100%
[7]
  IC50: > 100 µM
[8]; 1 mg i.p.
  Maximum change of vital parameters (%) heart rate: 3%
  Maximum change of vital parameters (%) oxygen saturation: −16%
  Maximum change of vital parameters (%) respiratory frequency: −18%
  Maximum change of vital parameters (%) blood flow: 15%
[8]; 3 mg i.p.
  Maximum change of vital parameters (%) heart rate: −3%
  Maximum change of vital parameters (%) oxygen saturation: −3%
  Maximum change of vital parameters (%) respiratory frequency: 5%
  Maximum change of vital parameters (%) blood flow: −5%
[8]; 6 mg i.p.
  Maximum change of vital parameters (%) heart rate: −9%
  Maximum change of vital parameters (%) oxygen saturation: −1%
  Maximum change of vital parameters (%) respiratory frequency: −1%
  Maximum change of vital parameters (%) blood flow: −1%
[8]; 9 mg i.p.
  Maximum change of vital parameters (%) heart rate: −12%
  Maximum change of vital parameters (%) oxygen saturation: −27%
  Maximum change of vital parameters (%) respiratory frequency: −40%
  Maximum change of vital parameters (%) blood flow: 9%
[9]; [18]
  concentration at 5 min: 12 µM
  concentration at 15 min: 16 µM
  concentration at 30 min: 12 µM
  concentration at 45 min: 10 µM
  concentration at 60 min: 8 µM
[9]; [19]
  concentration at 5 min: 25 µM
  concentration at 15 min: 45 µM
  concentration at 30 min: 36 µM
  concentration at 45 min: 17 µM
  concentration at 60 min: 5 µM
[9]; [20]
  concentration at 5 min: 22 µM
  concentration at 15 min: 48 µM
  concentration at 30 min: 69 µM
  concentration at 45 min: 78 µM
  concentration at 60 min: 74 µM
[9]; [21]
  concentration at 5 min: 29 µM
  concentration at 15 min: 56 µM
  concentration at 30 min: 20 µM
  concentration at 45 min: 12 µM
  concentration at 60 min: 3 µM
[9]; [22]
  concentration at 5 min: 30 µM
  concentration at 15 min: 18 µM
  concentration at 30 min: 12 µM
  concentration at 45 min: 9 µM
  concentration at 60 min: 3 µM
[9]; [23]
  concentration at 5 min: 25 µM
  concentration at 15 min: 36 µM
  concentration at 30 min: 22 µM
  concentration at 45 min: 9 µM
  concentration at 60 min: 4 µM
[9]; [24]
  concentration at 5 min: 36 µM
  concentration at 15 min: 48 µM
  concentration at 30 min: 26 µM
  concentration at 45 min: 18 µM
  concentration at 60 min: 9 µM
[9]; [25]
  concentration at 5 min: 37 µM
  concentration at 15 min: 28 µM
  concentration at 30 min: 11 µM
  concentration at 45 min: 5 µM
  concentration at 60 min: 3 µM
[9]; [26]
  concentration at 5 min: 58 µM
  concentration at 15 min: 77 µM
  concentration at 30 min: 72 µM
  concentration at 45 min: 63 µM
  concentration at 60 min: 21 µM
[10]
  solubility: 1450 µM
[11]; TA98, +S9, 31.25 μM
  Relative mutagenicity (as compared to the control value): 0.2
[11]; TA98, +S9, 62.5 μM
  Relative mutagenicity (as compared to the control value): 0.2
[11]; TA98, +S9, 125 μM
  Relative mutagenicity (as compared to the control value): 0.4
[11]; TA98, +S9, 250 μM
  Relative mutagenicity (as compared to the control value): 0.4
[11]; TA98, +S9, 500 μM
  Relative mutagenicity (as compared to the control value): 0.4
[11]; TA98, +S9, 1000 μM
  Relative mutagenicity (as compared to the control value): 0.2
[11]; TA98, −S9, 31.25 μM
  Relative mutagenicity (as compared to the control value): 1.2
[11]; TA98, −S9, 62.5 μM
  Relative mutagenicity (as compared to the control value): 0.3
[11]; TA98, −S9, 125 μM
  Relative mutagenicity (as compared to the control value): 0.7
[11]; TA98, −S9, 250 μM
  Relative mutagenicity (as compared to the control value): 0.3
[11]; TA98, −S9, 500 μM
  Relative mutagenicity (as compared to the control value): 0.7
[11]; TA98, −S9, 1000 μM
  Relative mutagenicity (as compared to the control value): 1.0
[12]; TA100, +S9, 31.25 μM
  Relative mutagenicity (as compared to the control value): 0.4
[12]; TA100, +S9, 62.5 μM
  Relative mutagenicity (as compared to the control value): 0.3
[12]; TA100, +S9, 125 μM
  Relative mutagenicity (as compared to the control value): 0.6
[12]; TA100, +S9, 250 μM
  Relative mutagenicity (as compared to the control value): 0.6
[12]; TA100, +S9, 500 μM
  Relative mutagenicity (as compared to the control value): 0.6
[12]; TA100, +S9, 1000 μM
  Relative mutagenicity (as compared to the control value): 0.5
[12]; TA100, −S9, 31.25 μM
  Relative mutagenicity (as compared to the control value): 0.8
[12]; TA100, −S9, 62.5 μM
  Relative mutagenicity (as compared to the control value): 0.5
[12]; TA100, −S9, 125 μM
  Relative mutagenicity (as compared to the control value): 0.6
[12]; TA100, −S9, 250 μM
  Relative mutagenicity (as compared to the control value): 0.5
[12]; TA100, −S9, 500 μM
  Relative mutagenicity (as compared to the control value): 0.6
[12]; TA100, −S9, 1000 μM
  Relative mutagenicity (as compared to the control value): 0.7
[13]; [16]
  % inhibition at 5 μM (or 10 μM if racemate) Smooth: 0%
[13]; [17]
  % inhibition at 50 μM (or 100 μM if racemate) Smooth: 11%
[13]; [14]
  % inhibition. complete Smooth: 100%

Reference: patent publication US12421243B2, “Pharmaceutically effective compounds inhibiting selectively the myosin 2 isoforms” (PRINTNET KERESKEDELMI ÉS SZOLGÁLTATÓ KFT., priority 2018, dated 2025)
